# Results as given in PubChem BioAssay AID1259408 (Genetic Toxicology Data Bank (GENE-TOX), 2018).
# Calls of active or inactive are those of the source. No rule for the calls is given here.
# Test system: GENE-TOX genotoxicity assays, various organisms and cells
# Assay: GENE-TOX mutagenicity studies
# Settings: for call: Assay Type: In vivo carcinogenicity studies
# [1] = Species/Cell Type: Drosophila melanogaster, Assay Type: Sex-linked recessive lethal gene mutation, Assay Code: SRL+, Evaluation Type: Evaluation A (Pre-1980)
# [2] = Species/Cell Type: Escherichia coli polA (W3119 vs P3478), Assay Type: Rec-assay, DNA effects (bacterial DNA repair), Assay Code: RE1+, Evaluation Type: Evaluation A (Pre-1980)
# [3] = Species/Cell Type: Fischer rat embryo (RLV/1706) cells, Assay Type: Cell transformation, viral enhanced, Assay Code: CTR+, Evaluation Type: Evaluation A (Pre-1980)
# [4] = Species/Cell Type: Human lymphocytes, Assay Type: Sister-chromatid exchange (SCE) in vitro, Assay Code: SCL+D, Dose Response: With dose response, Evaluation Type: Evaluation B (Post-1980)
# [5] = Species/Cell Type: Human, Assay Type: Sister-chromatid exchange (SCE) in vitro, Assay Code: SC1+D, Dose Response: With dose response, Evaluation Type: Evaluation B (Post-1980)
# [6] = Species/Cell Type: Neurospora crassa, Assay Type: Reverse gene mutation, Assay Code: NER+, Evaluation Type: Evaluation A (Pre-1980)
# [7] = Species/Cell Type: Nonhuman, Assay Code: CCG+, Evaluation Type: Evaluation A (Pre-1980)
# [8] = Species/Cell Type: Nonhuman, Assay Type: Sister-chromatid exchange (SCE) in vitro, Assay Code: SC2+D, Dose Response: With dose response, Evaluation Type: Evaluation A (Pre-1980)
# [9] = Species/Cell Type: Saccharomyces cerevisiae, Assay Type: Mitotic recombination or gene conversion, Assay Code: YEC+, Evaluation Type: Evaluation A (Pre-1980)
# [10] = Species/Cell Type: Saccharomyces cerevisiae, Assay Type: Mitotic recombination or gene conversion, Assay Code: YEH+, Evaluation Type: Evaluation A (Pre-1980)
# [11] = Species/Cell Type: Salmonella typhimurium (one or more of the five standard strains: TA98, TA100, TA1535, TA1537, and TA1538), Assay Type: Histidine reverse gene mutation, Ames assay, Assay Code: SAL+, Evaluation Type: Evaluation A (Pre-1980)
# [12] = Species/Cell Type: Salmonella typhimurium, Assay Type: Forward and reverse gene mutation, host-mediated assay, Assay Code: HMA+, Evaluation Type: Evaluation A (Pre-1980)
# [13] = Species/Cell Type: Syrian hamster embryo (SHE) cells, Assay Type: Cell transformation, clonal assay, Assay Code: CTC+D, Dose Response: With dose response, Evaluation Type: Evaluation A (Pre-1980)
# [14] = Species/Cell Type: Salmonella typhimurium (one or more of the five standard strains: TA98, TA100, TA1535, TA1537, and TA1538), Assay Type: Histidine reverse gene mutation, Ames assay, Assay Code: SALT, Evaluation Type: Evaluation A (Pre-1980)
# [15] = Species/Cell Type: Human lymphocytes, Assay Type: Sister-chromatid exchange (SCE) in vitro, Assay Code: SCL+, Evaluation Type: Evaluation B (Post-1980)
# [16] = Species/Cell Type: Nonhuman, Assay Code: CCG+L, Evaluation Type: Evaluation A (Pre-1980)
structure (smiles),measurement,setting,value
C1OC1C1CO1 (configuration not stated),mutagenic call,"Species/Cell Type: Aspergillus nidulans, Assay Type: Forward gene mutation, Assay Code: ASF+, Evaluation Type: Evaluation A (Pre-1980)",active; positive
same,mutagenic call,"Species/Cell Type: Aspergillus nidulans, Assay Type: Mitotic recombination, Assay Code: ASG+, Evaluation Type: Evaluation A (Pre-1980)",active; positive
same,mutagenic call,[1],active; positive
same,mutagenic call,"Species/Cell Type: Drosophila melanogaster, Sex: Male, Assay Type: Heritable translocation test, chromosome aberrations, Assay Code: DHT+, Evaluation Type: Evaluation A (Pre-1980)",active; positive
same,mutagenic call,[2],active; positive
same,mutagenic call,[3],active; positive
same,mutagenic call,"Species/Cell Type: Glycine max (soybean), Assay Type: Gene mutation, Assay Code: GLM+, Evaluation Type: Evaluation A (Pre-1980)",active; positive
same,mutagenic call,"Species/Cell Type: Hordeum vulgare (barley), Assay Type: Chromosome aberrations, Assay Code: HOC+, Evaluation Type: Evaluation A (Pre-1980)",active; positive
same,mutagenic call,[4],active; positive
same,mutagenic call,[5],active; positive
same,mutagenic call,"Species/Cell Type: Mouse (BALB/c-3T3) cells, Assay Type: Cell transformation, Assay Code: CTB+D, Dose Response: With dose response, Evaluation Type: Evaluation A (Pre-1980)",active; positive
same,mutagenic call,"Species/Cell Type: Neurospora crassa, Assay Type: Forward gene mutation, Assay Code: NEF+, Evaluation Type: Evaluation A (Pre-1980)",active; positive
same,mutagenic call,[6],active; positive
same,call,[7],active; positive
same,mutagenic call,[8],active; positive
same,mutagenic call,"Species/Cell Type: Nonhuman, Assay Type: Sister-chromatid exchange (SCE) in vivo, Assay Code: SC3+D, Dose Response: With dose response, Evaluation Type: Evaluation B (Post-1980)",active; positive
same,mutagenic call,[9],active; positive
same,mutagenic call,[10],active; positive
same,mutagenic call,"Species/Cell Type: Saccharomyces cerevisiae, Assay Type: Reverse gene mutation, Assay Code: YER+, Evaluation Type: Evaluation A (Pre-1980)",active; positive
same,mutagenic call,[11],active; positive
same,mutagenic call,[12],active; positive
same,mutagenic call,"Species/Cell Type: Schizosaccharomyces pombe, Assay Type: Reverse gene mutation, Assay Code: YEZ+, Evaluation Type: Evaluation A (Pre-1980)",active; positive
same,mutagenic call,[13],active; positive
same,mutagenic call,"Species/Cell Type: Vicia faba, Assay Type: Chromosome aberrations, Assay Code: VIC+D, Dose Response: With dose response, Evaluation Type: Evaluation A (Pre-1980)",active; positive
C/C=C(C)/C=C/C=C(C)/C=C/C1=C(C)CCCC1(C)C,mutagenic call,[5],active; positive
Cc1cc(N)c(N)cc1N,mutagenic call,[14],no conclusion
O=C([O-])[O-].[Cd+2],mutagenic call,"Species/Cell Type: Nonhuman, Assay Type: Sister-chromatid exchange (SCE) in vitro, Assay Code: SC2+, Evaluation Type: Evaluation B (Post-1980)",active; positive
Cc1cc(O)cc(O)c1,mutagenic call,"Species/Cell Type: Allium cepa, Assay Type: Chromosome aberrations, Assay Code: ALC-, Evaluation Type: Evaluation A (Pre-1980)",inactive; negative
CCc1ccccc1,mutagenic call,[15],active; positive
same,mutagenic call,"Species/Cell Type: Human, Assay Type: Sister-chromatid exchange (SCE) in vitro, Assay Code: SC1+, Evaluation Type: Evaluation B (Post-1980)",active; positive
same,mutagenic call,"Species/Cell Type: Syrian hamster embryo (SA7/SHE) cells, Assay Type: Cell transformation, viral enhanced, Assay Code: CT7-, Evaluation Type: Evaluation A (Pre-1980)",inactive; negative
Cc1c(F)c2ccccc2c2ccc3ccccc3c12,mutagenic call,[14],no conclusion
CC(=O)ON(C(C)=O)c1ccc2c(c1)Cc1ccccc1-2,mutagenic call,"Species/Cell Type: Chinese hamster lung (V79) cells, Assay Type: Forward gene mutation at the HPRT or ouabain locus, Assay Code: V79+, Evaluation Type: Evaluation A (Pre-1980)",active; positive
same,mutagenic call,[1],active; positive
same,mutagenic call,[2],active; positive
same,mutagenic call,[3],active; positive
same,mutagenic call,"Species/Cell Type: Human diploid fibroblasts, Assay Type: Unscheduled DNA synthesis (UDS) in vitro, DNA effects, Assay Code: UDH+D, Dose Response: With dose response, Evaluation Type: Evaluation A (Pre-1980)",active; positive
same,mutagenic call,[15],active; positive
same,mutagenic call,"Species/Cell Type: Human, Assay Type: Sister-chromatid exchange (SCE) in vitro, Assay Code: SC1+, Evaluation Type: Evaluation A (Pre-1980)",active; positive
same,mutagenic call,"Species/Cell Type: Mouse (BALB/c-3T3) cells, Assay Type: Cell transformation, Assay Code: CTB+, Evaluation Type: Evaluation A (Pre-1980)",active; positive
same,mutagenic call,"Species/Cell Type: Mouse (C3H/10T1/2) cells, Assay Type: Cell transformation, Assay Code: CTH+D, Dose Response: With dose response, Evaluation Type: Evaluation A (Pre-1980)",active; positive
same,mutagenic call,"Species/Cell Type: Mouse embryo (AKR/ME) cells, Assay Type: Cell transformation, Assay Code: CTK+, Evaluation Type: Evaluation A (Pre-1980)",active; positive
same,mutagenic call,[6],active; positive
same,call,[16],active; positive
same,mutagenic call,[8],active; positive
same,mutagenic call,"Species/Cell Type: Nonhuman, Assay Type: Sister-chromatid exchange (SCE) in vivo, Assay Code: SC3+, Evaluation Type: Evaluation B (Post-1980)",active; positive
same,mutagenic call,"Species/Cell Type: Nonhuman, Assay Type: Sister-chromatid exchange (SCE) in vivo, Assay Code: SC3T, Evaluation Type: Evaluation A (Pre-1980)",no conclusion
same,mutagenic call,"Species/Cell Type: Rat primary hepatocytes, Assay Type: Unscheduled DNA synthesis (UDS) in vitro, DNA effects, Assay Code: UDP+, Evaluation Type: Evaluation A (Pre-1980)",active; positive
same,mutagenic call,[9],active; positive
same,mutagenic call,[10],active; positive
same,mutagenic call,[11],active; positive
same,mutagenic call,[12],active; positive
same,mutagenic call,"Species/Cell Type: Syrian hamster embryo (SA7/SHE) cells, Assay Type: Cell transformation, viral enhanced, Assay Code: CT7+, Evaluation Type: Evaluation A (Pre-1980)",active; positive
same,mutagenic call,[13],active; positive
same,mutagenic call,"Species/Cell Type: Syrian hamster embryo (SHE) cells, Assay Type: Cell transformation, focus assay, Assay Code: CTF+, Evaluation Type: Evaluation A (Pre-1980)",active; positive
CCN(CC)c1ccc2c(-c3ccc(S(=O)(=O)O)cc3S(=O)(=O)[O-])c3ccc(=[N+](CC)CC)cc-3oc2c1,mutagenic call,"Species/Cell Type: Bacillus subtilis (H17 vs M45), Assay Type: Rec-assay, spot test, DNA effects (bacterial DNA repair), Assay Code: REWT, Evaluation Type: Evaluation A (Pre-1980)",no conclusion
same,mutagenic call,"Species/Cell Type: Bacillus subtilis (H17 vs M45T), Assay Type: Rec-assay, spot test, DNA effects (bacterial DNA repair), Assay Code: REXT, Evaluation Type: Evaluation A (Pre-1980)",no conclusion
COc1ccc(C(=O)/C(Br)=C\C(=O)O)cc1,mutagenic call,"Species/Cell Type: Mammalian polychromatic erythrocytes, Assay Type: Micronucleus test, chromosome aberrations, Assay Code: MNT+, Evaluation Type: Evaluation A (Pre-1980)",active; positive
same,call,[16],active; positive
ClCc1cccnc1,mutagenic call,[3],active; positive
same,mutagenic call,"Species/Cell Type: Mouse (BALB/c-3T3) cells, Assay Type: Cell transformation, Assay Code: CTB-, Evaluation Type: Evaluation A (Pre-1980)",inactive; negative
same,call,[16],active; positive
N[C@@H](Cc1ccc(N(CCCl)CCCl)cc1)C(=O)O,mutagenic call,[1],active; positive
same,mutagenic call,"Species/Cell Type: Drosophila melanogaster, Sex: Male, Assay Type: Heritable translocation test, chromosome aberrations, Assay Code: DHTT, Evaluation Type: Evaluation A (Pre-1980)",no conclusion
same,mutagenic call,"Species/Cell Type: Escherichia coli polA (W3110 vs P3478), Assay Type: Rec-assay, DNA effects (bacterial DNA repair), Assay Code: RE2+, Evaluation Type: Evaluation A (Pre-1980)",active; positive
same,mutagenic call,"Species/Cell Type: Escherichia coli polA (W3119 vs P3478), Assay Type: Rec-assay, DNA effects (bacterial DNA repair), Assay Code: RE1T, Evaluation Type: Evaluation A (Pre-1980)",no conclusion
same,mutagenic call,"Species/Cell Type: Human cell culture, Assay Type: Chromosome aberrations in vitro, Assay Code: CYZ+, Evaluation Type: Evaluation A (Pre-1980)",active; positive
same,mutagenic call,"Species/Cell Type: Human lymphocytes, Assay Type: Sister-chromatid exchange (SCE) in vitro, Assay Code: SCL+, Evaluation Type: Evaluation A (Pre-1980)",active; positive
same,mutagenic call,[4],active; positive
same,mutagenic call,"Species/Cell Type: Human lymphocytes, Assay Type: Sister-chromatid exchange (SCE) in vivo, Assay Code: SCY+, Evaluation Type: Evaluation B (Post-1980)",active; positive
same,mutagenic call,[5],active; positive
same,mutagenic call,"Species/Cell Type: Mouse (C3H/10T1/2) cells, Assay Type: Cell transformation, Assay Code: CTH+, Evaluation Type: Evaluation A (Pre-1980)",active; positive
same,mutagenic call,"Species/Cell Type: Nonhuman, Assay Type: Chromosome aberrations in vitro, Assay Code: CY&+, Evaluation Type: Evaluation A (Pre-1980)",active; positive
same,call,[7],active; positive
same,mutagenic call,[8],active; positive
same,mutagenic call,[11],active; positive
O=[N+]([O-])c1ccc(N2CCN(CCO)CC2)c2c1no[n+]2[O-],mutagenic call,[11],active; positive
